Test results reported in PubChem BioAssay (NCI).
Values joined by “and” are separate entries in the source; they are usually repeats but may differ in a detail not shown here. Equal values may be shown once.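 Results reflect a 48-hour exposure of cells in 96-well plates to compound at five concentrations. Abbreviation: GI50, concentration required for 50% inhibition of growth. TGI: total growth inhibition.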

Assays:
Assay in all cases: NCI tumour cell line growth inhibition, 48 h
[1] = tested on: 786-0 renal
[2] = tested on: A498 renal
[3] = tested on: A549 NSCLC
[4] = tested on: CAKI-1 renal
[5] = tested on: CCRF-CEM leukemia
[6] = tested on: COLO 205 colon
[7] = tested on: DLD-1 colon
[8] = tested on: DMS 273 small cell lung
[9] = tested on: EKVX NSCLC
[10] = tested on: HCT-116 colon
[11] = tested on: HCT-15 colon
[12] = tested on: HL-60(TB) leukemia
[13] = tested on: HOP-18 NSCLC
[14] = tested on: HOP-62 NSCLC
[15] = tested on: HOP-92 NSCLC
[16] = tested on: HT29 colon
[17] = tested on: IGROV1 ovarian
[18] = tested on: K-562 leukemia
[19] = tested on: KM12 colon
[20] = tested on: KM20L2 colon
[21] = tested on: LOX IMVI melanoma
[22] = tested on: LXFL 529 NSCLC
[23] = tested on: M14 melanoma
[24] = tested on: MALME-3M melanoma
[25] = tested on: MOLT-4 leukemia
[26] = tested on: NCI-H226 lung
[27] = tested on: NCI-H23 lung
[28] = tested on: NCI-H460 lung
[29] = tested on: NCI-H522 lung
[30] = tested on: OVCAR-3 ovarian
[31] = tested on: OVCAR-4 ovarian
[32] = tested on: OVCAR-5 ovarian
[33] = tested on: OVCAR-8 ovarian
[34] = tested on: RPMI-8226 leukemia
[35] = tested on: RXF 393 renal
[36] = tested on: SF-295 CNS
[37] = tested on: SF-539 CNS
[38] = tested on: SK-MEL-2 melanoma
[39] = tested on: SK-MEL-5 melanoma
[40] = tested on: SK-OV-3 ovarian
[41] = tested on: SN12C renal
[42] = tested on: SNB-19 CNS
[43] = tested on: SNB-75 CNS
[44] = tested on: SNB-78 CNS
[45] = tested on: SR leukemia
[46] = tested on: SW-620 colon
[47] = tested on: TK-10 renal
[48] = tested on: U251 CNS
[49] = tested on: UACC-257 melanoma
[50] = tested on: UACC-62 melanoma
[51] = tested on: UO-31 renal
[52] = tested on: XF 498 CNS
[53] = tested on: DMS 114 small cell lung
[54] = tested on: DU-145 prostate
[55] = tested on: HS 578T breast
[56] = tested on: M19-MEL melanoma
[57] = tested on: MCF7 breast
[58] = tested on: MDA-MB-231 breast
[59] = tested on: MDA-MB-435
[60] = tested on: MDA-N
[61] = tested on: NCI/ADR-RES ovarian
[62] = tested on: PC-3 prostate
[63] = tested on: T-47D breast

## O=C1C2C3C=C4c5ccccc5N(c5ccccc5)C4(C2C(=O)N1c1ccc(Br)cc1)[C@H]1C(=O)N(c2ccc(Br)cc2)C(=O)[C@@H]31 (some centres not stated)
[1]
  TGI: > 100 µM
[2]
  TGI: > 100 µM
[3]
  TGI: > 100 µM
[4]
  TGI: 81.5 µM
[5]
  TGI: > 100 µM
[6]
  TGI: > 100 µM
[7]
  TGI: > 100 µM
[8]
  TGI: > 100 µM
[9]
  TGI: > 100 µM
[10]
  TGI: > 100 µM
[11]
  TGI: > 100 µM
[12]
  TGI: > 100 µM
[13]
  TGI: > 100 µM
[14]
  TGI: > 100 µM
[15]
  TGI: > 100 µM
[16]
  TGI: > 100 µM
[17]
  TGI: > 100 µM
[18]
  TGI: > 100 µM
[19]
  TGI: > 100 µM
[20]
  TGI: > 100 µM
[21]
  TGI: > 100 µM
[22]
  TGI: > 100 µM
[23]
  TGI: > 100 µM
[24]
  TGI: > 100 µM
[25]
  TGI: > 100 µM
[26]
  TGI: > 100 µM
[27]
  TGI: > 100 µM
[28]
  TGI: > 100 µM
[29]
  TGI: > 100 µM
[30]
  TGI: > 100 µM
[31]
  TGI: > 100 µM
[32]
  TGI: > 100 µM
[33]
  TGI: > 100 µM
[34]
  TGI: > 100 µM
[35]
  TGI: > 100 µM
[36]
  TGI: > 100 µM
[37]
  TGI: > 100 µM
[38]
  TGI: > 100 µM
[39]
  TGI: > 100 µM
[40]
  TGI: > 100 µM
[41]
  TGI: > 100 µM
[42]
  TGI: > 100 µM
[43]
  TGI: > 100 µM
[44]
  TGI: > 100 µM
[45]
  TGI: > 100 µM
[46]
  TGI: > 100 µM
[47]
  TGI: > 100 µM
[48]
  TGI: > 100 µM
[49]
  TGI: > 100 µM
[50]
  TGI: > 100 µM
[51]
  TGI: > 100 µM
[52]
  TGI: > 100 µM

## COc1ccc2c(c[n+](C)c3c4cc5c(cc4ccc23)OCO5)c1OC
[2]
  GI50: 9.16 µM and 73.7 µM
  TGI: 21.9 µM and > 100 µM
[4]
  TGI: 3.63 µM
[7]
  TGI: 3.08 µM
[53]
  TGI: 4.71 µM
[8]
  TGI: 3.72 µM
[54]
  TGI: > 100 µM
[11]
  TGI: 17.5 µM and > 100 µM
[13]
  TGI: 4.04 µM
[55]
  TGI: > 100 µM
[16]
  GI50: 1.78 µM and 5.12 µM
[18]
  GI50: 3.8 µM and 34.1 µM
  TGI: > 100 µM
[19]
  GI50: 2.1 µM and 9 µM
[20]
  TGI: 3.15 µM
[22]
  TGI: 3.35 µM
[56]
  TGI: 3.07 µM
[57]
  TGI: 79.6 µM
[58]
  TGI: > 100 µM
[59]
  TGI: 43.8 µM
[60]
  TGI: 44.5 µM
[29]
  TGI: 3.64 µM
[61]
  TGI: > 100 µM
[32]
  GI50: 2.49 µM and 22.8 µM
[62]
  TGI: > 100 µM
[34]
  TGI: > 100 µM
[35]
  TGI: > 100 µM
[38]
  TGI: 3.54 µM
[44]
  TGI: 4.26 µM
[63]
  TGI: > 100 µM
